The target in the assay is T1, SIRT1 (Homo sapiens, UniProt Q96EB6).
T1 sequence (Q96EB6 1-747): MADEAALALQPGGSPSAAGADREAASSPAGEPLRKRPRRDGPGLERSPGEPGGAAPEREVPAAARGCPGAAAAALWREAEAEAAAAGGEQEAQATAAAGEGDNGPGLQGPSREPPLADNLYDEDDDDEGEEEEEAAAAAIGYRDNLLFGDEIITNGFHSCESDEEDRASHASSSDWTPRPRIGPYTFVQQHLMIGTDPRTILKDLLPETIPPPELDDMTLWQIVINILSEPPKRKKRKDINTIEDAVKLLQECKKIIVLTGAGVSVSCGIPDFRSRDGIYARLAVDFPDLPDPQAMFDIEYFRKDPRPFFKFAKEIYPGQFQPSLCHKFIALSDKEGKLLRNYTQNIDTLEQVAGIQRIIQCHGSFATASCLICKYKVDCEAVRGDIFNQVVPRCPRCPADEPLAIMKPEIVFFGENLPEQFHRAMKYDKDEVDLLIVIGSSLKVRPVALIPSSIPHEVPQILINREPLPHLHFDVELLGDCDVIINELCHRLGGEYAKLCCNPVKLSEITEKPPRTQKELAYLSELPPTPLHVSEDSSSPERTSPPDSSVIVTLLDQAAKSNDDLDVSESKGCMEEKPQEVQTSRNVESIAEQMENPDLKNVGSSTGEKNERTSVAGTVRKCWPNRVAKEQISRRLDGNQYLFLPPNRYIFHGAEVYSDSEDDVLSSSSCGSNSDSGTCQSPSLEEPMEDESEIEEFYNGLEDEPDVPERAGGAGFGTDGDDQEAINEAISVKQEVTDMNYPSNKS
Briefly: Mass spectrometry based SIRT1 deacetylase activation assay (acetylated p53-derived peptide substrate). In kind it is biochemical.

Setting [1] is: 0.5 μM peptide substrate, 120 μM βNAD+, 10 nM SIRT1, 25 minutes at 25° C.
Setting [2] is: 0.5 μM peptide substrate, 120 μM βNAD+, 10 nM SIRT1, 25 min at 25° C.
Where [3] appears, read: 0.5 μM peptide substrate, 120 μM βNAD+, 10 nM SIRT1, 25 min at 25° C., read-out: EC1.5.

Read-outs that look alike come from different tables or passages of the source.

In the case of `O=C(Nc1cccc2[nH]c(-c3cccc(N4CCOCC4)c3)nc12)c1cnccn1` [Compound 388], the EC1.5 result is reported as “B (EC1.5 1-25 uM)” and the “Fold Act. (percent maximum fold activation)” value is “A (Fold activation >200%)”.
For `Cc1cc(-c2nc3c(C(=O)Nc4nccs4)cccc3[nH]2)n(C)n1` [Compound 281] the same measures were “A (EC1.5<1.0 uM)” and “A (Fold activation >200%)”.
The corresponding values for `O=C(Nc1ccncc1)c1cccc2[nH]c(-c3cccc(C(F)(F)F)c3)nc12` [Compound 242] are “B (EC1.5 1-25 uM)” and “B (Fold Activation <200%)”.
As for `O=C(Nc1cccc(CN2CCOCC2)n1)c1cccc2[nH]c(-c3cc(F)cc(F)c3)nc12` [Compound 852], under setting [1], the EC1.5 result is given as “A (EC1.5<1.0 uM)” and the “Fold Act. (percent maximum fold activation)” value is listed as “A (Fold activation >200%)”.
As to `O=C(Nc1ccc(Cl)cn1)c1cccc2[nH]c(-c3cccc(C(F)(F)F)c3)nc12` [Compound 285], the EC1.5 result was “B (EC1.5 1-25 uM)” and the “Fold Act. (percent maximum fold activation)” value is given as “A (Fold activation >200%)”.
For `O=C(Nc1ccccn1)c1cccc2[nH]c(-c3ccc(OC[C@@H](O)CO)cc3C(F)F)nc12` [Compound 596], the “Fold Act. (percent maximum fold activation)” value under setting [2] is listed as “A (Fold activation >200%)”. The EC1.5 under setting [3] is less than 1000 nM.
As to `O=C(Nc1nccs1)c1cccc2[nH]c(-c3ccnc(Cl)c3)nc12` [Compound 231], the EC1.5 entry is on record as “A (EC1.5<1.0 uM)” and the “Fold Act. (percent maximum fold activation)” value is on record as “A (Fold activation >200%)”.
Consider `FC(F)(F)c1cccc(-c2nc3c(NCc4cccnc4)cccc3[nH]2)c1` [Compound 617], for which, under setting [1], the EC1.5 result is on record as “B (EC1.5 1-25 uM)” and the “Fold Act. (percent maximum fold activation)” value is on record as “B (Fold Activation <200%)”.
In the case of `O=C(Nc1nccs1)c1cccc2[nH]c(-c3cccc(OC(F)(F)F)c3)nc12` [Compound 204], the EC1.5 result was “A (EC1.5<1.0 uM)” and the “Fold Act. (percent maximum fold activation)” value is on record as “A (Fold activation >200%)”.
Turning to `O=C(Nc1nccs1)c1cccc2[nH]c(-c3ccc(CN4CCCC4)cc3C(F)(F)F)nc12` [Compound 828, 2-(4-(pyrrolidin-1-ylmethyl)-2-(trifluoromethyl)phenyl)-N-(thiazol-2-yl)-1H-benzo[d]imidazole-4-carboxamide], under setting [1], the EC1.5 result is reported as “A (EC1.5<1.0 uM)” and the “Fold Act. (percent maximum fold activation)” value is given as “A (Fold activation >200%)”.
Regarding `O=C(Nc1ccccn1)c1cccc2[nH]c(-c3ccc(Cl)cc3C(F)F)nc12` [Compound 564], under setting [2], the “Fold Act. (percent maximum fold activation)” value is “A (Fold activation >200%)”. Besides, under setting [3], the EC1.5 was 1000 to 25000 nM.
As to `CC1(C)CN(CCOc2ccccc2-c2nc3c(C(=O)Nc4ccccn4)cccc3[nH]2)CCO1` [Compound 712], under setting [1], the EC1.5 result is recorded as “B (EC1.5 1-25 uM)” and the “Fold Act. (percent maximum fold activation)” value was “B (Fold Activation <200%)”.
As to `O=C(Nc1cccc(OC2CCNC2)c1)c1cccc2[nH]c(-c3cc(F)ccc3C(F)(F)F)nc12` (centres unmarked) [Compound 524], the “Fold Act. (percent maximum fold activation)” value under setting [2] is reported as “A (Fold activation >200%)”. Further, the EC1.5 under setting [3] was less than 1000 nM.
For `O=C(Nc1nccs1)c1cncc2[nH]c(-c3ccc(Cl)cc3C(F)(F)F)nc12` [Compound 648], under setting [1], the EC1.5 entry is “A (EC1.5<1.0 uM)” and the “Fold Act. (percent maximum fold activation)” value was “A (Fold activation >200%)”.
For the molecule `O=C(Nc1cccc(CN2CCOCC2)n1)c1cccc2[nH]c(-c3cc(F)ccc3C(F)(F)F)nc12` [Compound 677], under setting [1], the EC1.5 result is “A (EC1.5<1.0 uM)” and the “Fold Act. (percent maximum fold activation)” value is reported as “A (Fold activation >200%)”.
On to `Cc1nc(N2CCOCC2)sc1-c1nc2c(C(=O)Nc3cccnc3)cccc2[nH]1` [Compound 413], for which the “Fold Act. (percent maximum fold activation)” value under setting [2] is given as “A (Fold activation >200%)”. The EC1.5 under setting [3] is less than 1000 nM.
For `O=C(Nc1cccnc1)c1cccc2[nH]c(-c3ccc(N4CCCC4)cc3C(F)(F)F)nc12` [Compound 573] the same measures were “A (Fold activation >200%)” and less than 1000 nM.
Regarding `O=C(Nc1cccc(OCC(O)CO)c1)c1cccc2[nH]c(-c3ccc(Cl)cc3C(F)(F)F)nc12` (centres unmarked) [Compound 479], under setting [2], the “Fold Act. (percent maximum fold activation)” value is “A (Fold activation >200%)”. Further, under setting [3], the EC1.5 is less than 1000 nM.
On to `O=C(Nc1cccc(CN2CCOCC2)n1)c1cccc2[nH]c(-c3ccc(F)cc3C(F)F)nc12` [Compound 818], for which, under setting [1], the EC1.5 result is “A (EC1.5<1.0 uM)” and the “Fold Act. (percent maximum fold activation)” value is “A (Fold activation >200%)”.
The corresponding values for `O=C(Nc1cccnc1)c1cc(F)cc2[nH]c(-c3ccc(OC[C@H](O)CO)cc3C(F)F)nc12` [Compound 829] are “A (EC1.5<1.0 uM)” and “A (Fold activation >200%)”.
Consider `O=C(Nc1cccc(OC[C@@H](O)CO)c1)c1cccc2[nH]c(-c3ccccc3C(F)(F)F)nc12` [Compound 725, (S)-N-(3-(2,3-dihydroxypropoxy)phenyl)-2-(2-(trifluoromethyl)phenyl)-1H-benzo[d]imidazole-4-carboxamide], for which, under setting [1], the EC1.5 result was “A (EC1.5<1.0 uM)” and the “Fold Act. (percent maximum fold activation)” value is “A (Fold activation >200%)”.
As to `O=C(NC1CCOC1=O)c1cccc2[nH]c(-c3cccc(N4CCOCC4)c3)nc12` (centres unmarked) [Compound 397], the EC1.5 result was “B (EC1.5 1-25 uM)” and the “Fold Act. (percent maximum fold activation)” value is “A (Fold activation >200%)”.
For `O=C(Nc1nccs1)c1cc(N2CCOCC2)cc2[nH]c(-c3ccc(F)cc3C(F)F)nc12` [Compound 749], under setting [1], the EC1.5 result was “A (EC1.5<1.0 uM)” and the “Fold Act. (percent maximum fold activation)” value is “A (Fold activation >200%)”.
As for `O=C(Nc1nccs1)c1cncc2nc(-c3ccc(OC[C@H](O)CO)cc3C(F)F)[nH]c12` [Compound 808], under setting [1], the EC1.5 entry is recorded as “A (EC1.5<1.0 uM)” and the “Fold Act. (percent maximum fold activation)” value is given as “A (Fold activation >200%)”.
Take `CCCN1CCc2cc(-c3nc4c(C(=O)Nc5ncc(C)s5)cccc4[nH]3)ccc21` [Compound 570]: the “Fold Act. (percent maximum fold activation)” value under setting [2] was “B (Fold Activation <200%)”. Also, under setting [3], the EC1.5 lay in the range of 1000 to 25000 nM.
On to `O=C(Nc1ccc(CN2CCOCC2)nc1)c1cccc2[nH]c(-c3ccccc3C(F)(F)F)nc12` [Compound 674], for which, under setting [1], the EC1.5 result was “A (EC1.5<1.0 uM)” and the “Fold Act. (percent maximum fold activation)” value is recorded as “A (Fold activation >200%)”.
For the molecule `CN1CCOc2cc(-c3nc4c(C(=O)Nc5cccnn5)cccc4[nH]3)cnc21` [Compound 457], the “Fold Act. (percent maximum fold activation)” value under setting [2] is listed as “A (Fold activation >200%)”. Besides, under setting [3], the EC1.5 is less than 1000 nM.
For `O=C(NCc1ccccn1)c1cccc2[nH]c(-c3ccccc3C(F)(F)F)nc12` [Compound 420], the “Fold Act. (percent maximum fold activation)” value under setting [2] is “A (Fold activation >200%)”. Also, the EC1.5 under setting [3] fell in the range of 1000 to 25000 nM.
As for `O=C(Nc1ccc(OC[C@H](O)CO)cc1)c1cccc2[nH]c(-c3cccc(N4CCOCC4)c3)nc12` [Compound 777], under setting [1], the EC1.5 result was “A (EC1.5<1.0 uM)” and the “Fold Act. (percent maximum fold activation)” value is “A (Fold activation >200%)”.
With `O=C(Nc1ccccn1)c1cccc2[nH]c(-c3cc(N4CCCC4)ccc3C(F)(F)F)nc12` [Compound 688], under setting [1], the EC1.5 entry was “C (EC1.5 >25 uM)” and the “Fold Act. (percent maximum fold activation)” value is recorded as “B (Fold Activation <200%)”.
Consider `O=C(Nc1cccc2[nH]c(-c3ccccc3C(F)(F)F)nc12)c1cnccn1` [Compound 366], for which the EC1.5 result is reported as “B (EC1.5 1-25 uM)” and the “Fold Act. (percent maximum fold activation)” value is “A (Fold activation >200%)”.
As to `O=C(Nc1ccccc1)c1cccc2[nH]c(-c3ccc(Cl)cc3C(F)(F)F)nc12` [Compound 754], under setting [1], the EC1.5 result is “A (EC1.5<1.0 uM)” and the “Fold Act. (percent maximum fold activation)” value is given as “A (Fold activation >200%)”.
As to `O=C(NCc1ccncc1)c1cccc2[nH]c(-c3cccc(C(F)(F)F)c3)nc12` [Compound 271], the EC1.5 entry was “C (EC1.5 >25 uM)” and the “Fold Act. (percent maximum fold activation)” value is “B (Fold Activation <200%)”.
In the case of `Cc1cnc(NC(=O)c2cccc3[nH]c(-c4ccc(N5CC[C@H](F)C5)cc4C(F)F)nc23)s1` [Compound 732], under setting [1], the EC1.5 result is “A (EC1.5<1.0 uM)” and the “Fold Act. (percent maximum fold activation)” value is given as “A (Fold activation >200%)”.
Consider `Cc1cnc(NC(=O)c2cccc3[nH]c(-c4ccc(N5CCOCC5)cc4C(F)(F)F)nc23)s1` [Compound 549], for which the “Fold Act. (percent maximum fold activation)” value under setting [2] is “A (Fold activation >200%)”. Under setting [3], the EC1.5 is less than 1000 nM.
As to `O=C(NC1CCNCC1)c1cccc2[nH]c(-c3ccc(F)cc3C(F)(F)F)nc12` [Compound 454], the “Fold Act. (percent maximum fold activation)” value under setting [2] is recorded as “B (Fold Activation <200%)”. The EC1.5 under setting [3] was greater than 25000 nM.
For the molecule `O=C(Nc1nccs1)c1cccc2[nH]c(-c3ccnc(N4CCNCC4)c3)nc12` [Compound 314], the EC1.5 entry is given as “B (EC1.5 1-25 uM)” and the “Fold Act. (percent maximum fold activation)” value is given as “A (Fold activation >200%)”.
